# Reference: paper PMC8305389, “Tuning Photodynamic Properties of BODIPY Dyes, Porphyrins’ Little Sisters” (Molecules, 2021)
# Marks after values point to notes of the source that are not given here.
# Tests used:
# [1] = system: human cervical carcinoma (HeLa) cells; test: Photodynamic activity (phototoxicity) after light activation, Neutral Red uptake; assay type: cell-based; conditions: for EC50: Homo sapiens, light or radiation study, HeLa, 12 h incubation, λ > 455 nm, 15.3 mW cm−2, 15 min, 13.7 J cm−2; for PDT activity improved over S3AlOHPc (fold): comparison with literature value of S3AlOHPc (ref 37); for EC50 higher than temoporfin (fold): comparison with literature value of temoporfin (ref 37)
# Protocol: (§1) The human cervical carcinoma (HeLa) and human melanoma (SK-MEL-28) cell lines were purchased from the American Type Cell Culture Collection (ATCC; Manassas, VA, USA). Both cell lines were cultured in Dulbecco’s modified Eagle’s medium (DMEM) without phenol red (Lonza, Verviers, Belgium) and supplemented with 10% heat-inactivated fetal bovine serum (Sigma-Aldrich (Merck, Darmstadt, Germany), 1% penicillin/streptomycin solution (Lonza), 10 mM HEPES buffer (Lonza), and 4 mM ultraglutamine I (alanyl-L-glutamine; Lonza). The cell lines were cultured in 75 cm^2 tissue culture flasks (TPP, Trasadingen, Switzerland) and maintained in a CO2 incubator at 37 °C in a humidified atmosphere of 5% CO2 and subcultured every 3−4 days. For the cytotoxicity experiments (phototoxicity and dark toxicity), cells were seeded into 96-well plates (TPP) at a density of 7.5 × 10^3 (HeLa and SK-MEL-28) cells per well for 24 h.
# (§2) Stock solutions of the investigated compounds were prepared in DMSO at a concentration of 0.5 mM (4b) or 1 mM (all other compounds) and were sterilized by filtration through 0.22 μm syringe MCE filters. The stock solutions were diluted by the above-mentioned cell culture medium to the required concentrations. The maximum DMSO concentration in the medium in the experiments was 1% (2% in case of cpd. 4b). Cytoxicity of DMSO at corresponding concentrations (without studied compounds) was assessed in all cytotoxicity experiments as well—no toxicity against SK-MEL-28 or HeLa cells was observed.
# (§3) For the photodynamic activity assessment experiments (phototoxicity), both HeLa and SK-MEL-28 cells were incubated overnight (12 h) with the studied compounds. The cells were then carefully and swiftly washed twice with a prewarmed sterile phosphate-buffered saline, fresh cell culture medium was added, and cells were subsequently irradiated for 15 min using a 450 W ozone-free Xe lamp (Newport; intensity reduced to 400 W). The lamp was equipped with a long-pass filter (Newport 20CGA-455) and an 8-cm water filter to cut off undesirable wavelengths and heat radiation, respectively (λ > 455 nm, 15.3 mW cm^−2, 15 min, 13.7 J cm^−2). Cellular viability was measured after an additional 24 h by the above-mentioned NR uptake assay. At least four independent experiments, each in triplicate, were performed.
# (§4) The concentrations of the studied compounds that induced a 50% decrease in cellular viability after treatment under the dark conditions (TC50, the median toxic concentration) or after the photodynamic treatment (EC50, the median effective concentration) were calculated using GraphPad Prism software (version 9.1.2; GraphPad Software, Inc., San Diego, CA, USA) for each independent experiment. The data are presented as the means ± standard deviations of these values.
# [2] = system: human melanoma (SK-MEL-28) cells; test: as above; assay type: cell-based; conditions: for EC50: Homo sapiens, light or radiation study, 12 h incubation, λ > 455 nm, 15.3 mW cm−2, 15 min, 13.7 J cm−2
# Protocol: as §1, §2, §3, §4
# SK-MEL-28 cells = test: Dark toxicity (without irradiation), Neutral Red uptake; assay type: cell-based, human; conditions: 24 h in the dark, compounds precipitated over listed values
# Protocol: as §1, §2
# To assess dark toxicities (inherent toxicities of the studied compounds without irradiation), SK-MEL-28 cells were treated with studied PSs for 24 h in the dark. Viability was evaluated after two washing steps using the Neutral Red (NR; Sigma-Aldrich (Merck, Darmstadt, Germany) uptake assay, based on the ability of the living cells to incorporate NR into their intact lysosomes (concentration of NR in cell culture medium was 30 μg/mL and incubation time with NR was 2 h). The absorbance of soluble NR in cell lysate was measured at λ = 540 nm using a Tecan Infinite 200 M plate reader (Tecan, Männedorf, Switzerland). The viability of each experimental group was expressed as the percentage of the untreated controls incubated under the same conditions (100%). After staining (before lysis), the cells were briefly investigated under the microscope to verify changes in cellular morphology and the presence of NR in lysosomes (orange-red spots in the cells). These observations were in agreement with NR measurements.
# as §4
# [3] = Absorption and fluorescence measurements (quantum yield, lifetime); assay type: physicochemical; conditions: MeOH; for extinction coefficient (log ε): at λmax; for fluorescence quantum yield, absolute method (ΦF(absol)): integrating sphere; for fluorescence quantum yield, relative method (ΦF(relat)): rhodamin-G6 as reference; for fluorescence lifetime (τF): λexc = 506.1 nm
# Protocol: The singlet oxygen quantum yields (ΦΔ) and the fluorescence quantum yields (ΦF) of tested samples in MeOH were determined using published comparative (relative) methods with rhodamin-G6 used as a reference for fluorescence (ΦF = 0.94 in EtOH [31]), and bengal rose as a reference for singlet oxygen determinations (ΦΔ = 0.76 in MeOH [32]). Singlet oxygen measurements were performed with 1,3-diphenylisobenzofuran as the chemical scavenger of singlet oxygen by monitoring its decomposition at 417 nm. The ΦF values were also determined by an absolute method using an integrating sphere in an FLS1000 fluorimeter (Edinburgh Instruments, Edinburgh, UK). Fluorescence lifetimes were measured on the same fluorimeter upon excitation by HPL510 laser (Edinburgh Instruments, λ = 506.1 nm).
Compound,EC50 [1],"TC50/EC50, phototherapeutic index [2]",EC50 [2],"TC50, dark toxicity (SK-MEL-28 cells)",absorption maximum (λmax) [3],emission maximum (λF) [3],extinction coefficient (log ε) [3],"fluorescence quantum yield, absolute method (ΦF(absol)) [3]","fluorescence quantum yield, relative method (ΦF(relat)) [3]",fluorescence lifetime (τF) [3],PDT activity improved over S3AlOHPc (fold) [1],EC50 higher than temoporfin (fold) [1]
"CC1=CC(C)=[N+]2C1=C(c1ccc(OCCCCCCCCN3C(=O)c4ccccc4C3=O)cc1)c1c(C)cc(C)n1[B-]2(F)F [2b, 1,3,5,7-Tetramethyl-8-{4-[8-(phthalimidyl)octyloxy]phenyl}-4,4-difluoro-4-bora-3a,4a-diaza-s-indacene]",2400 ± 530 nM,>2.64,3790 ± 200 nM,>10 ^b μM,498 nm,507 nm,4.96,0.44,0.42,2.88 ns,,
"CC1=C(I)C(C)=[N+]2C1=C(c1ccc(OCCCCCCCCN3C(=O)c4ccccc4C3=O)cc1)c1c(C)c(I)c(C)n1[B-]2(F)F [3b, 2,6-Diiodo-1,3,5,7-tetramethyl-8-{4-[8-(phthalimidyl)octyloxy]phenyl}-4,4-difluoro-4-bora-3a,4a-diaza-s-indacene]",1570 ± 330 nM,>8.13,1230 ± 140 nM,>10 ^b μM,530 nm,547 nm,3.70,0.030,0.023,0.17 ns,,
"CC1=CC(C)=[N+]2C1=C(c1ccc(OCCCCCN)cc1)c1c(C)cc(C)n1[B-]2(F)F [5a, 1,3,5,7-Tetramethyl-8-[4-(5-aminopentyloxy)phenyl]-4,4-difluoro-4-bora-3a,4a-diaza-s-indacene]",9400 ± 700 nM,>2.78,3600 ± 660 nM,>10 ^b μM,498 nm,507 nm,4.90,0.43,0.44,3.25 ns,,
"CC1=C(Br)C(C)=[N+]2C1=C(c1ccc(OCCCCCN3C(=O)c4ccccc4C3=O)cc1)c1c(C)c(Br)c(C)n1[B-]2(F)F [4a, 2,6-Dibromo-1,3,5,7-tetramethyl-8-{4-[5-(phthalimidyl)pentyloxy]phenyl}-4,4-difluoro-4-bora-3a,4a-diaza-s-indacene]",210 ± 20 nM,>123,81 ± 23 nM,>10 ^b μM,525 nm,540 nm,4.72,0.21,0.19,1.37 ns,10 ×,3 ×
"CC1=C(Br)C(C)=[N+]2C1=C(c1ccc(OCCCCCCCCN3C(=O)c4ccccc4C3=O)cc1)c1c(C)c(Br)c(C)n1[B-]2(F)F [4b, 2,6-Dibromo-1,3,5,7-Tetramethyl-8-{4-[8-(phthalimidyl)octyloxy]phenyl}-4,4-difluoro-4-bora-3a,4a-diaza-s-indacene]",370 ± 70 nM,>45.5,220 ± 50 nM,>10 ^b μM,523 nm,538 nm,4.04,0.23,0.22,1.54 ns,10 ×,3 ×
"CC1=CC(C)=[N+]2C1=C(c1ccc(OCCCCCCCCN)cc1)c1c(C)cc(C)n1[B-]2(F)F [5b, 1,3,5,7-Tetramethyl-8-[4-(8-aminooctyloxy)phenyl]-4,4-difluoro-4-bora-3a,4a-diaza-s-indacene]",1570 ± 330 nM,>4.13,2420 ± 460 nM,>10 ^b μM,498 nm,507 nm,4.00,0.50,0.47,3.22 ns,,
"CC1=C(I)C(C)=[N+]2C1=C(c1ccc(OCCCCCN3C(=O)c4ccccc4C3=O)cc1)c1c(C)c(I)c(C)n1[B-]2(F)F [3a, 2,6-Diiodo-1,3,5,7-tetramethyl-8-{4-[5-(phthalimidyl)pentyloxy]phenyl}-4,4-difluoro-4-bora-3a,4a-diaza-s-indacene]",140 ± 10 nM,>192,52 ± 10 nM,>10 ^b μM,530 nm,546 nm,4.36,0.022,0.024,0.17 ns,10 ×,3 ×
